# Laboratory results taken from patent US10385054B2, “Pyrrolo[3,2-d]pyrimidine derivatives for the treatment of viral infections and other diseases” (Janssen Sciences Ireland Unlimited Company, priority 2013, dated 2019).
# Experiments:
# Assay type in all cases: cell-based
# [1] = test system: interferon-stimulated responsive elements (ISRE); assay: Activation of ISRE promoter elements in HEK-ISREluc cells by conditioned media from compound-treated PBMC; conditions: compound concentration applied to PBMCs overnight, supernatant on HEK-ISREluc cells 24 hours, read-out: HEK-ISRE luc (LEC)
# Procedure: The potential of compounds to induce IFN-I was also evaluated by measuring the activation of interferon-stimulated responsive elements (ISRE) by conditioned media from PBMC. The ISRE element of sequence […] (SEQ ID NO: 1) is highly responsive to the STAT1-STAT2-IRF9 transcription factor, activated upon binding of IFN-I to their receptor IFNAR (Clontech, PT3372-5W). The plasmid pISRE-Luc from Clontech (ref. 631913) contains 5 copies of this ISRE element, followed by the firefly luciferase ORF. A HEK293 cell line stably transfected with pISRE-Luc (HEK-ISREluc) was established to profile the conditioned PBMC cell culture media.
# Briefly, PBMCs were prepared from buffy coats of at least two donors using a standard Ficoll centrifugation protocol. Isolated PBMCs were resuspended in RPMI medium supplemented with 10% human AB serum and 2×10^5 cells/well were dispensed into 384-well plates containing compounds (70 μL total volume). After overnight incubation, 10 μL of supernatant was transferred to 384-well plates containing 5×10^3 HEK-ISREluc cells/well in 30 μL (plated the day before). Following 24 hours of incubation, activation of the ISRE elements was measured by assaying luciferase activity using 40 μL/well Steady Lite Plus substrate (Perkin Elmer) and measured with ViewLux ultraHTS microplate imager (Perkin Elmer). The stimulating activity of each compound on the HEK-ISREluc cells was reported as LEC value, defined as the compound concentration applied to the PBMCs resulting in a luciferase activity at least two fold above the standard deviation of the assay. The LEC in turn indicates the degree of ISRE activation on transfer of a defined amount of PBMC culture medium. Recombinant interferon α-2a (Roferon-A) was used as a standard control compound.
# human TLR8 = target: T1, human TLR8 (Homo sapiens, UniProt Q9NR97); assay: TLR8 cellular NFκB-luc reporter assay in transiently transfected HEK293 cells; conditions: lowest effective concentration, 6 hours incubation
# T1 construct: expressed in transfected cells; host or cells: HEK293
# T1 sequence (Q9NR97 27-1041): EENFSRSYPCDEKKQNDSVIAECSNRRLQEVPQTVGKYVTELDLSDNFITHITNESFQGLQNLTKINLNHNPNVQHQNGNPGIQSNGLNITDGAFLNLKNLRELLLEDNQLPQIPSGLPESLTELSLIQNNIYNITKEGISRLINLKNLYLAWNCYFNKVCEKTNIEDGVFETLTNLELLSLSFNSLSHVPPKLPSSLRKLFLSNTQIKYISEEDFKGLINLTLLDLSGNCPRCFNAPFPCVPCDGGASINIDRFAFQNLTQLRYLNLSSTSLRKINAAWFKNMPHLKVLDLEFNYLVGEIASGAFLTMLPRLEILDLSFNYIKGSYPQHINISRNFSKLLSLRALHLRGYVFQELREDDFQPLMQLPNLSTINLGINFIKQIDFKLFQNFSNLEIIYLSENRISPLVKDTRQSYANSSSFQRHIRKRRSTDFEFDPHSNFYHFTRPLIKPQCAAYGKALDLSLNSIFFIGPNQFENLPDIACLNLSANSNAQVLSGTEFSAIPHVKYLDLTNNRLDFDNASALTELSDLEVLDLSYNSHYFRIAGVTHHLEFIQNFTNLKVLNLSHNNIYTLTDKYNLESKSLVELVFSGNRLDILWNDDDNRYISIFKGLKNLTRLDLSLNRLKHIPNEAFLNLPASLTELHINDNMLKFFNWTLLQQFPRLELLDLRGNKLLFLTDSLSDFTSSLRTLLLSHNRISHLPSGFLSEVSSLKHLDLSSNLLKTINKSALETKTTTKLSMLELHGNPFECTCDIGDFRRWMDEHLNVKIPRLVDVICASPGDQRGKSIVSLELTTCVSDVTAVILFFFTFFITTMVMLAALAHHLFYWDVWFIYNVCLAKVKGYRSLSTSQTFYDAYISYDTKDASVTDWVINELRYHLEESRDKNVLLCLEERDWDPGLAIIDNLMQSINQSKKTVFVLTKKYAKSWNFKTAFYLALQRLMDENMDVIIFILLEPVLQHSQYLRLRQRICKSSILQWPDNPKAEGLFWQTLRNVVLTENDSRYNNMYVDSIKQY
# Procedure: (§1) The ability of compounds to activate human TLR7 and/or TLR8 was assessed in a cellular reporter assay using HEK293 cells transiently transfected with a TLR7 or TLR8 expression vector and NFκB-luc reporter construct.
# (§2) Briefly, HEK293 cells were grown in culture medium (DMEM supplemented with 10% FCS and 2 mM Glutamine). For transfection of cells in 15 cm dishes, cells were detached with Trypsin-EDTA, transfected with a mix of CMV-TLR7 or TLR8 plasmid (1700 ng), NFκB-luc plasmid (850 ng) and a transfection reagent and incubated for 48 h at 37° C. in a humidified 5% CO2 atmosphere. Transfected cells were then washed in PBS, detached with Trypsin-EDTA and resuspended in medium to a density of 1.25×10^5 cells/mL. Forty microliters of cells were then dispensed into each well in 384-well plates, where 200 nL of compound in 100% DMSO was already present. Following 6 hours incubation at 37° C., 5% CO2, the luciferase activity was determined by adding 15 μL of Steady Lite Plus substrate (Perkin Elmer) to each well and readout performed on a ViewLux ultraHTS microplate imager (Perkin Elmer). Dose response curves were generated from measurements performed in quadruplicates. Lowest effective concentrations (LEC) values, defined as the concentration that induces an effect which is at least two fold above the standard deviation of the assay, were determined for each compound.
# human TLR7 = target: T2, human TLR7 (Homo sapiens, UniProt Q9NYK1); assay: TLR7 cellular NFκB-luc reporter assay in transiently transfected HEK293 cells; conditions: lowest effective concentration, 6 hours incubation
# T2 construct: expressed in transfected cells; host or cells: HEK293
# T2 sequence (Q9NYK1 27-1049): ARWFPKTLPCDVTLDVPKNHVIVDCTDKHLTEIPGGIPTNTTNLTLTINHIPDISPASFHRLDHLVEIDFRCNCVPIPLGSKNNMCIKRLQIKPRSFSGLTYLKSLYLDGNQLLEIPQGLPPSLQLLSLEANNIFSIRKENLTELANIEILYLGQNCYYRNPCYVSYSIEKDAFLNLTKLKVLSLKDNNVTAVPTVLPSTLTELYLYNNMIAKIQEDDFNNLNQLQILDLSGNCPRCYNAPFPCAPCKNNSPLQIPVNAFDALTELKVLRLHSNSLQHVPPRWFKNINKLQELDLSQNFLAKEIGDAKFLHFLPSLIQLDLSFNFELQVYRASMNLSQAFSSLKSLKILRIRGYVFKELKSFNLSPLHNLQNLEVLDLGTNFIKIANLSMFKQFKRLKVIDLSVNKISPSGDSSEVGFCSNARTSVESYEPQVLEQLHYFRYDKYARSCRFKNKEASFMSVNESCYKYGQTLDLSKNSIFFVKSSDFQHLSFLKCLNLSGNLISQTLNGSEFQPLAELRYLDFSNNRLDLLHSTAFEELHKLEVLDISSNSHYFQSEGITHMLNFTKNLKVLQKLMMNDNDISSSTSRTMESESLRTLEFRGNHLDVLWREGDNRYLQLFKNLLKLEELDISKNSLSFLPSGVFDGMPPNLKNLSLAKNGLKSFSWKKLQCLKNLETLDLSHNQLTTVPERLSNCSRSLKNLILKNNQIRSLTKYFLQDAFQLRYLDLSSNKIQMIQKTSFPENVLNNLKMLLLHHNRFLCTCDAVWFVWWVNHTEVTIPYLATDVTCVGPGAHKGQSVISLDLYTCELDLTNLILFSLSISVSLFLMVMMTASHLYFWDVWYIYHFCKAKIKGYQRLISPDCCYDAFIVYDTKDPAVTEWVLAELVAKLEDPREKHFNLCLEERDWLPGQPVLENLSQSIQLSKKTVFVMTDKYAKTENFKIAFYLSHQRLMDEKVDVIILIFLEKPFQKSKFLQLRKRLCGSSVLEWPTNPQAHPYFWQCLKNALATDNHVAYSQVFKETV
# Procedure: as §1
# as §2, with “quadruplicates.” for “quadruplicates. Lowest effective concentrations (LEC) values, defined as the concentration that induces an effect which is at least two fold above the standard deviation of the assay, were determined for each compound.”
Structure (SMILES),minimal effective concentration [1],Human TLR 8 (LEC) (human TLR8),Human TLR 7 (LEC) (human TLR7)
CCCCOc1nc(N)nc2ccn(Cc3ccccc3)c12 [Compound 1],0.4 µM,>25 µM,0.6 µM
COCCn1ccc2nc(N)nc(OCc3cc(C)on3)c21 [Compound 2],0.5 µM,>25 µM,2.7 µM
COc1ccccc1Cn1ccc2nc(N)nc(OCc3cc(C)on3)c21 [Compound 3],0.03 µM,>25 µM,0.1 µM
CCCCOc1nc(N)nc2ccn(Cc3ccccn3)c12 [Compound 4],0.6 µM,>25 µM,1.4 µM
Cc1cc(COc2nc(N)nc3ccn(Cc4ccccn4)c23)no1 [Compound 5],,>25 µM,
Cc1nc(COc2nc(N)nc3ccn(Cc4ccccn4)c23)no1 [Compound 6],,>25 µM,
COc1ccc(Cn2ccc3nc(N)nc(OCc4cc(C)on4)c32)nc1OC [Compound 7],0.03 µM,>25 µM,0.08 µM
COc1cccnc1Cn1ccc2nc(N)nc(OCc3cc(C)on3)c21 [Compound 8],0.01 µM,>25 µM,0.03 µM
COc1cccnc1Cn1ccc2nc(N)nc(OCc3ncc(C)o3)c21 [Compound 9],,>25 µM,
Cc1cnc(COc2nc(N)nc3ccn(Cc4ccccn4)c23)s1 [Compound 10],,>25 µM,
Cc1cnc(COc2nc(N)nc3ccn(Cc4ccccn4)c23)o1 [Compound 11],,>25 µM,
